From US9073821B2, “Hydroxamic acid derivative” (priority 2010, dated 2015) come the findings set out here.

Structures are written as SMILES. Converted amounts (≈) assume the structure as drawn. Read-outs that look alike come from different tables or passages of the source.

Assay [1] deals with Pseudomonas aeruginosa LpxC enzyme (Pseudomonas aeruginosa (strain ATCC 15692 / DSM 22644 / CIP 104116 / JCM 14847 / LMG 12228 / 1C / PRS 101 / PAO1), UniProt P47205). Put plainly: biochemical. It counts as biochemical.
A further assay concerns the target E. coli LpxC enzyme (Escherichia coli (strain K12), UniProt P0A725). Put plainly: Inhibitory activity on E. coli LpxC enzyme (fluorescamine assay). It counts as biochemical. The settings on record: Table 4. How it is done:
Test 2: Evaluation of the Inhibitory Activity on E. coli LpxC Enzyme
An inhibition curve was constructed for each test compound by performing the aforementioned reaction at varying concentrations of the test compound. From this inhibition curve, the concentration of the test compound at which the formation of the reaction product was suppressed by 50% was determined as the IC50 of the test compound, which was an index for the inhibitory activity on E. coli LpxC enzyme.

Another assay deals with E. coli strain ATCC25922. Put plainly: Antimicrobial activity, MIC by broth microdilution. Particulars: Escherichia coli, Table 4, 35° C., 18 hours, read-out: E. coli ATCC 25922 strain MIC. It counts as cell-based. The text has this: (§1) Test 3: Evaluation of Antimicrobial Activity For minimum inhibitory concentration (MIC) measurement, the following broth microdilution method was applied as adapted from the standard procedure recommended by the CLSI (Clinical and Laboratory Standards Institute). The bacteria used were Pseudomonas aeruginosa strain TS88 (clinical isolate), E. coli strain ATCC25922, and Klebsiella pneumoniae strain ATCC13883. After culture overnight on a heart infusion agar medium, the cells of a test bacterium were scraped off and suspended to give a turbidity of level 0.5 on the McFarland scale; the suspension was then diluted 10 fold to prepare an inoculum solution. A 0.005 mL aliquot of the inoculum solution was inoculated in a cation-adjusted Mueller-Hinton broth medium containing a test compound and cultured at 35° C. for 18 hours. A minimum drug concentration at which no cell growth was visible to the naked eye was designated as MIC.

The test system of assay [2] is Klebsiella pneumoniae strain ATCC13883. Put plainly: Antimicrobial activity, MIC by broth microdilution. It counts as cell-based. Particulars: Table 4, 35° C., 18 hours, read-out: Klebsiella pneumoniae ATCC 13883 strain MIC.
From the text: as §1
(In broth dilution the organism is exposed to a series of concentrations in liquid medium.)

Assay [3] deals with Pseudomonas aeruginosa strain TS88 (clinical isolate). Put plainly: Antimicrobial activity, MIC by broth microdilution. It counts as cell-based. Particulars: Table 4, 35° C., 18 hours, read-out: Pseudomonas aeruginosa TS88 strain MIC.
From the text: as §1

Setting [4] is: Table 4, read-out: Pseudomonas aeruginosa LpxC IC50.
Where [5] appears, read: inhibitory activity on Pseudomonas aeruginosa LpxC enzyme, class symbols A/B/C, read-out: Enzyme inhibitory activity.

Sequence of E. coli LpxC enzyme (P0A725 whole entry): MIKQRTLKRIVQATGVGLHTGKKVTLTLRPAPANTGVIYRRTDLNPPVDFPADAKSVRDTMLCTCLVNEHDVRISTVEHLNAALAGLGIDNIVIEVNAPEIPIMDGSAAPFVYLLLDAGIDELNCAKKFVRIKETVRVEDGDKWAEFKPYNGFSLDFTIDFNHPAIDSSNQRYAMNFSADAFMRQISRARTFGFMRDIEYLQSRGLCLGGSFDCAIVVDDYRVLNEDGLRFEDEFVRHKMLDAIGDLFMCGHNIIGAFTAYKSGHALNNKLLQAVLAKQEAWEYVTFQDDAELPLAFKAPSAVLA

The term MIC denotes the lowest concentration that inhibits growth of the organism. As for `CNC(=O)C(C)(C(=O)NO)N(C)C(=O)c1ccc(C#Cc2coc(COC)c2)cc1` (stereo not drawn) [Compound 528, N-hydroxy-2-{[(4-{[5-(methoxymethyl)furan-3-yl]ethynyl}phenyl)carbonyl](methyl)amino}-N′,2-dimethylpropanediamide], the IC50 in assay [1] is under 10 nM; in assay [1] (setting [4]), 4.8 nM; against E. coli LpxC enzyme, 25 nM. Besides, the MIC in the assay on E. coli strain ATCC25922 was 0.25 µg/mL (≈ 0.605 µM); in assay [2], 2 µg/mL (≈ 4.84 µM); in assay [3] it was 0.5 µg/mL (≈ 1.21 µM).

Turning to `CNC(=O)[C@@](C)(C(=O)NO)N(C)C(=O)c1ccc(/C=C/c2ccc(CN3CCOCC3)cc2)cc1` [Compound 434, (2S)-N-hydroxy-N′,2-dimethyl-2-{methyl[(4-{(E)-2-[4-(morpholin-4-ylmethyl)phenyl]ethenyl}phenyl)carbonyl]amino}propanediamide], the IC50 was 2.8 nM in assay [1] (setting [4]), under 10 nM in assay [1] (setting [5]) and 55 nM at E. coli LpxC enzyme. The minimum inhibitory concentration (MIC) turned out to be 0.25 µg/mL (≈ 0.52 µM) in the assay with E. coli strain ATCC25922, 1 µg/mL (≈ 2.08 µM) in assay [2] and 1 µg/mL (≈ 2.08 µM) in assay [3].

`CNC(=O)[C@@](C)(C(=O)NO)N(C)C(=O)c1ccc(C#Cc2ccc(CN3CCCOCC3)cc2)cc1` [Compound 376, (2S)-N-hydroxy-N′,2-dimethyl-2-[methyl(4-{[4-(1,4-oxazepan-4-ylmethyl)phenyl]ethynyl}benzoyl)amino]propanediamide]: the results for the IC50 (in assay [1] (setting [4]); in assay [1] (setting [5]); against E. coli LpxC enzyme) were 2 nM, under 10 nM and 129 nM, respectively. Besides, the minimum inhibitory concentration (MIC) is 0.25 µg/mL (≈ 0.508 µM) with E. coli strain ATCC25922, 1 µg/mL (≈ 2.03 µM) in assay [2] and 0.5 µg/mL (≈ 1.02 µM) in assay [3].

`CNC(=O)C(C(=O)NO)N(C)C(=O)c1ccc(C#Cc2ccc(CN3CCCOCC3)cc2)cc1` (stereo not drawn) [Compound 168, N-hydroxy-N′-methyl-2-[methyl(4-{[4-(1,4-oxazepan-4-ylmethyl)phenyl]ethynyl}benzoyl)amino]propanediamide]: the results for the IC50 (in assay [1] (setting [4]); in assay [1] (setting [5]); against E. coli LpxC enzyme) were 4.2 nM, under 10 nM and 119 nM, respectively. The figures for the minimum inhibitory concentration (MIC) (in the assay with E. coli strain ATCC25922; in assay [2]; in assay [3]) were 0.5 µg/mL (≈ 1.04 µM), 2 µg/mL (≈ 4.18 µM) and 0.5 µg/mL (≈ 1.04 µM), respectively.

Turning to `CNC(=O)C(C(=O)NO)N(C)C(=O)c1ccc(C#Cc2ccc(CNC3CC3)cc2)cc1` (stereo not drawn) [Compound 301, 2-[{[4-({4-[(Cyclopropylamino)methyl]phenyl}ethynyl)phenyl]carbonyl}(methyl)amino]-n-hydroxy-n′-methylpropanediamide], the IC50 in assay [1] (setting [4]) was 6.1 nM; in assay [1] (setting [5]), under 10 nM; against E. coli LpxC enzyme it was 100 nM. Further, the MIC in the assay with E. coli strain ATCC25922 was found to be 1 µg/mL (≈ 2.3 µM); in assay [2], 4 µg/mL (≈ 9.21 µM); in assay [3], 1 µg/mL (≈ 2.3 µM).

`CNC(=O)[C@@](C)(C(=O)NO)N(C)C(=O)c1ccc(CCc2ccc(CN3CCOCC3)cc2)cc1` [Compound 425, (2S)-N-hydroxy-N′,2-dimethyl-2-{methyl[(4-{2-[4-(morpholin-4-ylmethyl)phenyl]ethyl}phenyl)carbonyl]amino}propanediamide]: the IC50 is 5.1 nM in assay [1] (setting [4]), under 10 nM in assay [1] (setting [5]) and 121 nM at E. coli LpxC enzyme. In addition, the results for the minimum inhibitory concentration (MIC) (with E. coli strain ATCC25922; in assay [2]; in assay [3]) were 2 µg/mL (≈ 4.14 µM), 8 µg/mL (≈ 16.6 µM) and 8 µg/mL (≈ 16.6 µM), respectively.

Regarding `CNC(=O)[C@@](C)(C(=O)NO)N(C)C(=O)c1ccc(C#Cc2coc(COC)c2)cc1` [Compound 550, (2S)-N-hydroxy-2-{[(4-{[5-(methoxymethyl)furan-3-yl]ethynyl}phenyl)carbonyl](methyl)amino}-N′,2-dimethylpropanediamide], the IC50 in assay [1] was under 10 nM; in assay [1] (setting [4]) it was 1.6 nM; on E. coli LpxC enzyme, 12 nM. Also, the MIC with E. coli strain ATCC25922 came to 0.25 µg/mL (≈ 0.605 µM); in assay [2] it was 1 µg/mL (≈ 2.42 µM); in assay [3], 0.5 µg/mL (≈ 1.21 µM).

For the compound `CNC(=O)[C@@](C)(C(=O)NO)N(C)C(=O)c1ccc(C#Cc2ccc(CNC3COC3)cc2)cc1` [Compound 396, (2S)-N-hydroxy-N′,2-dimethyl-2-(methyl{[4-({4-[(oxetan-3-ylamino)methyl]phenyl}ethynyl)phenyl]carbonyl}amino)propanediamide], the IC50 in assay [1] (setting [4]) is 3.1 nM; in assay [1] (setting [5]), under 10 nM; on E. coli LpxC enzyme, 46 nM. Moreover, the MIC in the assay on E. coli strain ATCC25922 came out at 0.5 µg/mL (≈ 1.08 µM); in assay [2] it was 2 µg/mL (≈ 4.31 µM); in assay [3] it was 2 µg/mL (≈ 4.31 µM).

On to `CNC(=O)[C@@](C)(C(=O)NO)N(C)C(=O)c1ccc(C#Cc2coc(CNC3CC3)c2)cc1` [Compound 585, (2S)-2-[{[4-({5-[(cyclopropylamino)methyl]furan-3-yl}ethynyl)phenyl]carbonyl}(methyl)amino]-N-hydroxy-N′,2-dimethylpropanediamide], for which the IC50 in assay [1] (setting [4]) is 3.4 nM; in assay [1] (class symbols A/B/C by IC50, Table 3, read-out: Enzyme inhibitory activity (inhibitory activity on Pseudomonas aeruginosa LpxC enzyme)), under 10 nM; against E. coli LpxC enzyme, 88 nM. Moreover, the minimal inhibitory concentration (MIC) in the assay on E. coli strain ATCC25922 was 0.5 µg/mL (≈ 1.14 µM); in assay [2], 1 µg/mL (≈ 2.28 µM); in assay [3], 0.5 µg/mL (≈ 1.14 µM).

Take `CCOc1ccc(-c2ccc(C(=O)N(C)C(C(=O)NC)C(=O)NO)cc2)cc1` (stereo not drawn) [Compound 211, 2-{[(4′-ethoxybiphenyl-4-yl)carbonyl](methyl)amino}-N-hydroxy-N′-methylpropanediamide]: the IC50 in assay [1] (setting [4]) is 3.1 nM; in assay [1] (setting [5]), under 10 nM; against E. coli LpxC enzyme, 109 nM. The MIC with E. coli strain ATCC25922 was determined as 1 µg/mL (≈ 2.59 µM); in assay [2], 8 µg/mL (≈ 20.8 µM); in assay [3] it was 0.5 µg/mL (≈ 1.3 µM).

In the case of `CNC(=O)C(C(=O)NO)N(C)C(=O)c1ccc(C#C/C=C/c2ccc(CNC3CC3)cc2)cc1` (stereo not drawn) [Compound 481, 2-[({4-[(3E)-4-{4-[(cyclopropylamino)methyl]phenyl}but-3-en-1-yn-1-yl]phenyl}carbonyl)(methyl)amino]-N-hydroxy-N′-methylpropanediamide], the figures for the IC50 (in assay [1] (setting [4]); in assay [1] (setting [5]); at E. coli LpxC enzyme) were 9.1 nM, under 10 nM and 78 nM, respectively. For the same compound, the MIC was 0.25 µg/mL (≈ 0.543 µM) with E. coli strain ATCC25922, 2 µg/mL (≈ 4.34 µM) in assay [2] and 1 µg/mL (≈ 2.17 µM) in assay [3].
